Measured values taken from US20120172386A1, “Combinations Comprising a VEGF Receptor Inhibitor” (NOVARTIS AG, priority 2005, published 2012).

Assays:
VEGF-R2 (KDR) = VEGF-R2 (KDR) (Homo sapiens, UniProt P35968); assay: Inhibition of the tyrosine kinase activity of VEGF-R2 (KDR); assay type: biochemical
Method: Inhibition of the Tyrosine Kinase Activity of VEGF-R2 (KDR)
The inhibition test is carried out as described above.

[1] = Percutaneous penetration/permeation in static Franz-type diffusion cells with split-thickness human cadaver skin; assay type: in vitro ADME; details: solution a (propylene glycol); batch of skin 4
Method: Frozen human dorsal cadaver skin (Caucasian; back skin) was obtained from the National Disease Research Interchange, Philadelphia, USA. Skin from three different donors was used;
Thawed skin samples were dermatomed to 0.7 mm with an Aesculap dermatome to obtain “split-thickness” skin.
Percutaneous penetration was studied in vitro by means of static Franz-type diffusion cells with phosphate buffered saline/fetal calf serum 2:1 as receptor fluid at 32° in triplicates for 48 hours. The compounds were applied as 1% solutions (300 μl each) in propylene glycol (solution a) or in propylene glycol/oleyl alcohol 9:1 (solution b). Samples of 100 μl were taken 5 to 7 times and replaced by fresh receptor fluid as described previously (Schmook, et al., Skin Pharmacol. 1993, 6:116-124).
Drug analysis was performed with specimens of the exposed skin (at the end of the 48 hours experiment), from which the stratum corneum had been removed by 20 strippings with an adhesive tape. The weighed skin samples were homogenized in 0.2 M ammonium phosphate buffer (pH 7.0). The homogenates were extracted with ethyl acetate and processed as described (Schmook, et al 1993).

[2] = as above; assay type: in vitro ADME; details: batch of skin 4
[3] = solution c (propylene glycol containing 0.1% DMSO)
[4] = solution d (propylene glycol containing 1% DMSO)

Sequence of VEGF-R2 (KDR) (P35968 20-1356, species assumed): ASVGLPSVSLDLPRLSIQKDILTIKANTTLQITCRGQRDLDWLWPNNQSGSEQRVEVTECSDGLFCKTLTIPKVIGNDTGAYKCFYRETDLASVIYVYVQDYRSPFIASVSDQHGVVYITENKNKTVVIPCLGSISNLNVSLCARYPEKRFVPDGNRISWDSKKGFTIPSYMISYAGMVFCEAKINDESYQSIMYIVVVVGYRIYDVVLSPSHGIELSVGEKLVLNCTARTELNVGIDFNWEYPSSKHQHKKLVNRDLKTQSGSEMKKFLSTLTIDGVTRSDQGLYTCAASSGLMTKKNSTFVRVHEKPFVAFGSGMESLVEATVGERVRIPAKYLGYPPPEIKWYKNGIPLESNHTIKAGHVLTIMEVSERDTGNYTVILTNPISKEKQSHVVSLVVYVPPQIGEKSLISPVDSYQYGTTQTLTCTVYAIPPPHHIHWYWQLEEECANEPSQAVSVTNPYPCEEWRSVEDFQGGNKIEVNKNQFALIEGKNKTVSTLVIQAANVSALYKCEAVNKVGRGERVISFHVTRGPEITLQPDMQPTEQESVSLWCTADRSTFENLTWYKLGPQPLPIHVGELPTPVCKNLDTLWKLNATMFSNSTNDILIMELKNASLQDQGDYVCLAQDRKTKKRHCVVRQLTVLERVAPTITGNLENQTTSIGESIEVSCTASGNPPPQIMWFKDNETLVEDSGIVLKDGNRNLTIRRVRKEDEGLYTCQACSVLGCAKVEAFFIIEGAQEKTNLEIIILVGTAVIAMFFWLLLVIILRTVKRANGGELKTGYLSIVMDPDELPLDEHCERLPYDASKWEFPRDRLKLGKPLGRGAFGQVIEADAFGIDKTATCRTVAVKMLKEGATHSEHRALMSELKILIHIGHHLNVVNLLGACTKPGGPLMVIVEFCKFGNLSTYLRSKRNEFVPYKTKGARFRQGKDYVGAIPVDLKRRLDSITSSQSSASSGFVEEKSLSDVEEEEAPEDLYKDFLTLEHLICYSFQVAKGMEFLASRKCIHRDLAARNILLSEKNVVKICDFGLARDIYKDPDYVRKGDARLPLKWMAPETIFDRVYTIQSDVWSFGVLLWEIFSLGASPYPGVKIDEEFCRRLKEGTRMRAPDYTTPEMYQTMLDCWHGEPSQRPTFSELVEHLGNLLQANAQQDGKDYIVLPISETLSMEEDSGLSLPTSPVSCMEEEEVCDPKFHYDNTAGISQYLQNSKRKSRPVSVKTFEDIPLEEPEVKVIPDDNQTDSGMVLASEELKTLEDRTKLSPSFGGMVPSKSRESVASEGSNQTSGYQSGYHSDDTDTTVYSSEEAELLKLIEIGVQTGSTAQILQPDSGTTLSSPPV

IC50 (VEGF-R2 (KDR))	melting point	Structure (SMILES)	further results
17 nM		Cc1ccc(NC(=O)N2CCOc3cc(Oc4ccnc(N)n4)ccc32)cc1C(F)(F)F [12f), 7-(2-amino-pyrimidin-4-yloxy)-2,3-dihydro-benzo[1,4]oxazine-4-carboxylic acid (4-methyl-3-trifluoromethyl-phenyl)-amide]	
19 nM		Nc1nccc(Oc2ccc3c(C(=O)Nc4ccc(C(F)(F)F)cc4)cccc3c2)n1 [17a)]	
54 nM		CC(C)(C)c1ccc(NC(=O)c2cccc3cc(Oc4ccnc(N)n4)ccc23)cc1 [17b)]	
46 nM	180 to 182 °C	CNc1cc(Oc2ccc3c(c2)OCCN3C(=O)Nc2ccc(C)c(C(F)(F)F)c2)ncn1 [Example 8, 7-(6-Methylamino-pyrimidin-4-yloxy)-2,3-dihydro-benzo[1,4]oxazine-4-carboxylic acid (4-methyl-3-trifluoromethyl-phenyl)-amide]	
29 nM	180 °C	CNc1cc(Oc2ccc3c(c2)OCCN3C(=O)Nc2cccc(C(F)(F)F)c2)ncn1 [Example 9, 7-(6-Methylamino-pyrimidin-4-yloxy)-2,3-dihydro-benzo[1,4]oxazine-4-carboxylic acid (3-trifluoromethyl-phenyl)-amide]	
37 nM	161 to 163 °C	Nc1nccc(Oc2ccc3c(c2)OCCN3C(=O)Nc2cccc(C(F)(F)F)c2)n1 [Example 10, 7-(2-Amino-pyrimidin-4-yloxy)-2,3-dihydro-benzo[1,4]oxazine-4-carboxylic acid (3-trifluoromethyl-phenyl)-amide]	
20 nM		Cc1ccc(NC(=O)c2cccc3cc(Oc4ccnc(N)n4)ccc23)cc1C(F)(F)F [Example 15, 6-(2-Amino-pyrimidin-4-yloxy)-naphthalene-1-carboxylic acid (4-methyl-3-trifluoromethyl-phenyl)-amide]	
21 nM	216 to 217 °C	CC(=O)Nc1nccc(Oc2ccc3c(C(=O)Nc4cccc(C(F)(F)F)c4)cccc3c2)n1 [Example 18, 6-(2-Acetylamino-pyrimidin-4-yloxy)-naphthalene-1-carboxylic acid (3-trifluoromethyl-phenyl)-amide]	
24 nM		CC(=O)Nc1nccc(Oc2ccc3c(c2)OCCN3C(=O)Nc2ccc(C)c(C(F)(F)F)c2)n1 [Example 20, 7-(2-Acetylamino-pyrimidin-4-yloxy)-2,3-dihydro-benzo[1,4]oxazine-4-carboxylic acid (4-methyl-3-trifluoromethyl-phenyl)-amide]	
19 nM		COC(=O)Nc1nccc(Oc2ccc3c(c2)OCCN3C(=O)Nc2ccc(C)c(C(F)(F)F)c2)n1 [Example 21, 7-(2-Methoxycarbonylamino-pyrimidin-4-yloxy)-2,3-dihydro-benzo[1,4]oxazine-4-carboxylic acid (4-methyl-3-trifluoromethyl-phenyl)-amide]	
96 nM		CN1CCN(Cc2ccc(NC(=O)N3CCOc4cc(Oc5ccnc(N)n5)ccc43)cc2C(F)(F)F)CC1 [Example 22, 7-(2-Amino-pyrimidin-4-yloxy)-2,3-dihydro-benzo[1,4]oxazine-4-carboxylic acid [4-(4-methyl-piperazin-1-ylmethyl)-3-trifluoromethyl-phenyl]-amide]	
		Nc1nccc(Oc2ccc3c(C(=O)Nc4cccc(C(F)(F)F)c4)cccc3c2)n1 [formula Ip]	Permeation rate [1]: <2 ng/mL/h; Skin concentration [1]: 6.2 ± 1.5 µg/g; Permeation rate [2, 3]: <2 ng/mL/h; Skin concentration [2, 3]: 4.4 ± 3.1 µg/g; Permeation rate [2, 4]: <2 ng/mL/h; Skin concentration [2, 4]: 4.7 ± 2.9 µg/g
